# According to patent publication US9540356B2 (priority 2012, dated 2017):
# How the values were obtained:
# HeLa cells [1] = assay type: cell-based, human
# HeLa cells [2] = assay: cells; assay type: cell-based; conditions: Homo sapiens
# [3] = system: retrograde transport of Shiga toxin subunit B (StxB); assay type: cell-based
compound,measurement,setting,value
"CN1c2ccccc2C(=O)N(c2ccccc2)C1c1ccc(-c2ccco2)s1 (stereo not drawn) [Compound 40, 2-(5-(Furan-2-yl)thiophen-2-yl)-1-methyl-3-phenyl-2,3-dihydroquinazolin-4(1H)-one]","R (Stx), protective index",HeLa cells [1],27
same,IC50,HeLa cells [2],1500 nM
same,"retrograde transport, % control",[3],5.3%
